From ChEMBL document CHEMBL3885861, “Open TG-GATES”

Species: Rattus norvegicus
Test: Open TG-GATES - Regimen: Daily Repeat
Type: toxicity, organism-based, Sprague-Dawley
Set-up: regimen Daily Repeat, gender Male, age 6 weeks
Settings: in vivo, po, 30 mg/kg, route gavage, dose level High; for APTT / Bas / Eos / Fbg / Hb / Ht / Lym / MCH / MCHC / MCV / Mono / Neu / PT / Plat / RBC / Ret / WBC: tissue Blood; for KIDNEY_L / KIDNEY_R / KIDNEY_TOTAL: tissue Kidney; for LIVER: tissue Liver; for A/G / ALP / ALT / AST / BUN / CRE / Ca / Cl / DBIL / GLC / IP / K / LDH / Na / PL / RALB / TBIL / TC / TG / TP / gamma-GTP: tissue Plasma

## Cn1cnc([N+](=O)[O-])c1Sc1ncnc2nc[nH]c12 [AZATHIOPRINE]
72 h, time 3 day
  TERMINAL_BW: 201.9 g
  APTT: 19.5 s
  Bas: 0%
  Eos: 0.8%
  Fbg: 327.6 mg/dL
  Hb: 12.7 g/dL
  Ht: 37.9%
  Lym: 86%
  MCH: 21.7 pg
  MCHC: 33.5%
  MCV: 64.7 fL
  Mono: 2.2%
  Neu: 9.4%
  PT: 15.3 s
  Plat: 140.5 x10_4/uL
  RBC: 585.2 x10_4/ul
  Ret: 2.3%
  WBC: 55.5 x10_2/uL
  KIDNEY_L: 0.9 g
  KIDNEY_R: 0.9 g
  KIDNEY_TOTAL: 1.8 g
  LIVER: 9.7 g
  A/G: 1.2
  ALP: 1508.2 IU/L
  ALT: 33 IU/L
  AST: 68.2 IU/L
  BUN: 17.2 mg/dL
  CRE: 0.1 mg/dL
  Ca: 11.3 mg/dL
  Cl: 106 meq/L
  DBIL: 0 mg/dL
  GLC: 185 mg/dL
  IP: 6.8 mg/dL
  K: 4.4 meq/L
  LDH: 199.8 IU/L
  Na: 143 meq/L
  PL: 160.4 mg/dL
  RALB: 3.3 g/dL
  TBIL: 0.008 mg/dL
  TC: 91.8 mg/dL
  TG: 77 mg/dL
  TP: 6 g/dL
  gamma-GTP: 1.4 IU/L
[…], time 7 day
  TERMINAL_BW: 220 g
  APTT: 21.5 s
  Bas: 0%
  Eos: 1%
  Fbg: 314.4 mg/dL
  Hb: 12.4 g/dL
  Ht: 36%
  Lym: 84.6%
  MCH: 22.1 pg
  MCHC: 34.5%
  MCV: 64.2 fL
  Mono: 1.8%
  Neu: 11.6%
  PT: 15.1 s
  Plat: 192.2 x10_4/uL
  RBC: 561.4 x10_4/ul
  Ret: 4.1%
  WBC: 73.3 x10_2/uL
  KIDNEY_L: 1 g
  KIDNEY_R: 1 g
  KIDNEY_TOTAL: 2 g
  LIVER: 10.9 g
  A/G: 1.1
  ALP: 1412.8 IU/L
  ALT: 29.6 IU/L
  AST: 75.2 IU/L
  BUN: 17.8 mg/dL
  CRE: 0.1 mg/dL
  Ca: 11.3 mg/dL
  Cl: 105.2 meq/L
  DBIL: 0 mg/dL
  GLC: 191.2 mg/dL
  IP: 6.6 mg/dL
  K: 4.1 meq/L
  LDH: 255.6 IU/L
  Na: 142.6 meq/L
  PL: 179.8 mg/dL
  RALB: 3.3 g/dL
  TBIL: 0.01 mg/dL
  TC: 98.2 mg/dL
  TG: 56.4 mg/dL
  TP: 6.2 g/dL
  gamma-GTP: 1 IU/L
[…], time 14 day
  TERMINAL_BW: 226 g
  APTT: 28.3 s
  Bas: 0%
  Eos: 0.2%
  Fbg: 458.2 mg/dL
  Hb: 12.5 g/dL
  Ht: 35%
  Lym: 85.8%
  MCH: 21.8 pg
  MCHC: 35.6%
  MCV: 61.2 fL
  Mono: 2%
  Neu: 10.6%
  PT: 18.9 s
  Plat: 86.4 x10_4/uL
  RBC: 571.6 x10_4/ul
  Ret: 3%
  WBC: 49.6 x10_2/uL
  KIDNEY_L: 1.1 g
  KIDNEY_R: 1.1 g
  KIDNEY_TOTAL: 2.1 g
  LIVER: 11.5 g
  A/G: 0.9
  ALP: 976.6 IU/L
  ALT: 135 IU/L
  AST: 523.6 IU/L
  BUN: 31.6 mg/dL
  CRE: 0.2 mg/dL
  Ca: 11.2 mg/dL
  Cl: 106.8 meq/L
  DBIL: 0.036 mg/dL
  GLC: 168.8 mg/dL
  IP: 8.4 mg/dL
  K: 4.8 meq/L
  LDH: 1529.2 IU/L
  Na: 142.6 meq/L
  PL: 149.6 mg/dL
  RALB: 3 g/dL
  TBIL: 0.074 mg/dL
  TC: 94.8 mg/dL
  TG: 35.8 mg/dL
  TP: 6.5 g/dL
  gamma-GTP: 1.4 IU/L
[…], time 28 day
  TERMINAL_BW: 300.4 g
  APTT: 24.3 s
  Bas: 0%
  Eos: 1%
  Fbg: 339.5 mg/dL
  Hb: 12.4 g/dL
  Ht: 35.6%
  Lym: 87%
  MCH: 21.5 pg
  MCHC: 34.9%
  MCV: 61.6 fL
  Mono: 1%
  Neu: 10.5%
  PT: 16.4 s
  Plat: 135.4 x10_4/uL
  RBC: 577.5 x10_4/ul
  Ret: 5.3%
  WBC: 35.2 x10_2/uL
  KIDNEY_L: 1.1 g
  KIDNEY_R: 1.2 g
  KIDNEY_TOTAL: 2.3 g
  LIVER: 12.9 g
  A/G: 1.1
  ALP: 982 IU/L
  ALT: 32 IU/L
  AST: 71.5 IU/L
  BUN: 19 mg/dL
  CRE: 0.2 mg/dL
  Ca: 10.8 mg/dL
  Cl: 106.5 meq/L
  DBIL: 0.01 mg/dL
  GLC: 192.5 mg/dL
  IP: 5.7 mg/dL
  K: 3.9 meq/L
  LDH: 214 IU/L
  Na: 141.5 meq/L
  PL: 138.5 mg/dL
  RALB: 3.4 g/dL
  TBIL: 0.05 mg/dL
  TC: 73 mg/dL
  TG: 42.5 mg/dL
  TP: 6.5 g/dL
  gamma-GTP: 2 IU/L
